According to patent US20220008359A1, “COMBINATION ANTI-CANCER PRODUCTS AND METHODS” (priority 2020, published 2022):
Marks after values point to notes of the source that are not given here.

Test system: H1650 cells (wild type)
Test: In-cell immunostaining of protein expression and phosphorylation, H1650 wild type cells
Type: cell-based, human
Details: H1650 WT, 6 h; VEH = 100
Experimental: Assessments of protein expression and protein phosphorylation. Multi-channel fluorescence HCS microscopes perform true in-cell western blotting. Three independent cultures derived from three thawed vials of cells of a tumor were sub-cultured into individual 96-well plates. Twenty-four hours after plating, the cells are transfected with a control plasmid or a control siRNA, or with an empty vector plasmid or with plasmids to express various proteins. After another 24 hours, the cells are ready for drug exposure(s). At various time-points after the initiation of drug exposure, cells are fixed in place using paraformaldehyde and using Triton X100 for permeabilization. Standard immunofluorescent blocking procedures are employed, followed by incubation of different wells with a variety of validated primary antibodies and subsequently validated fluorescent-tagged secondary antibodies are added to each well. The microscope determines the background fluorescence in the well and in parallel randomly determines the mean fluorescent intensity of 100 cells per well.

What does the source list for `Nc1nc2[nH]cc(CCc3ccc(C(=O)N[C@@H](CCC(=O)O)C(=O)O)cc3)c2c(=O)[nH]1` [PEM, Pemetrexed]?
BCL-XL expression: 84*; ERK2 expression: 100; FLIP-s expression: 92; MCL-1 expression: 83*
